Experiments:
[1] = tested on: Tomato seeds of hybrid tomato var. Royal Mounty; assay: In vitro tomato seedling root growth bioassay (agar medium); assay type: in vivo; conditions: for tomato seedling root length, compared to LCO: 22° C., FIG. 5
Method: Tomato seeds of hybrid tomato var. Royal Mounty were surface sterilized with 10% bleach solution for 10 minutes followed by 3 rinses with sterilized distilled water. Seeds were then dried in a laminar air flow hood for 3 hours. Seeds were then placed in petri-dishes on solidified agar medium containing various concentrations of different sources of the LCO illustrated in FIG. 1b (manufactured by Darmstadt, Germany and Grenoble, France) (also referred to in the examples as the “soybean LCO”) and the inventive CO illustrated in FIG. 2a (also referred to in the examples as the “pea CO” or “CO-V”). Seedling roots were measured by a hand ruler and root fresh weights were taken in a micro balance at day 7. Growth study was done in a growth chamber at 22° C.

[2] = tested on: Soybean seeds (Jung seed, var. 8168NRR); assay: Treatment of soybean seed with various actives (greenhouse); assay type: in vivo
Method: Soybean seeds (Jung seed, var. 8168NRR) were treated with various active molecules. Seeds were treated with a liquid dose rate of 3 fl oz/100 lbs of seed. Seeds were allowed to dry for a 2 hours and planted in greenhouse in plastic pots containing 1:1 sand:perlite mixture. Seedlings were grown for 4 wks with occasional liquid fertilizer applications and then the plants were harvested. The central leaflet from the 2nd trifoliate (from down to top) was isolated and measured for surface area on a WinRhizo scanner. The rest of the plants were used for plant dry weight (DW).

[3] = tested on: Siratro (Macroptelium atropurpureum) root segments; assay: Root hair deformation bioassay, Siratro; conditions: 4 hours in the dark, FIG. 14
Method: Siratro (Macroptelium atropurpureum) seeds were germinated on moist filter paper in petriplates. When seedlings roots are about 1-inches long, they are severed from the seedlings and treated with 2 ml of 10^−8M treatment solutions in test tubes for 4 hours in the dark. After treatment time is over the solutions are dyed with Congo Red for 10 minutes. After that root segments are observed under a compound microscope to count the number of deformed root hairs in the most sensitive zone of the root segment. Root hair deformation bioassay was also performed using Red Clover in a similar fashion like Siratro above and only visual observation was made and recorded in text form.

[4] = tested on: Corn seeds; assay: Corn seed germination and root length in petriplates; assay type: in vivo; conditions: 5 days after plating
Method: Corn and wheat seeds were plated in petriplates containing 5 ml of treatment solution on a filter paper. Corn seeds were placed on moist filter paper for germination. Similarly, wheat seeds (spring wheat) were placed in petriplates. […] Roots were harvested and their length measured by WinRhizo system.

[5] = tested on: Common vetch (Vicia sativa) seeds; assay: Common vetch seed germination and root length; assay type: in vivo; conditions: FIG. 21
Method: Common vetch seeds were plated in petriplates containing 5 ml of treatment solutions on filter paper. Seed germination at 22° C. was counted after 24 h and seedling root length was measured at day 5 with WinRhizo system.

[6] = tested on: Lab Lab seeds; assay: Seed germination in multiple crops: Lab Lab; assay type: in vivo; conditions: 30 h, dark, 22° C., FIG. 23
Method: (§1) Similar to the seed germination experiment mentioned above, seeds of different crops were placed on moist filter paper in petriplates containing 5 ml liquid in each. Petriplates with seeds were then kept in the dark at 22° C.

[7] = tested on: Red Clover seeds; assay: Seed germination in multiple crops: Red Clover; assay type: in vivo; conditions: 24 h, dark, 22° C., FIG. 23
Method: as §1

[8] = tested on: Green Mung, Lab Lab, Red Lentil and Red Clover seeds; assay: Seed germination in multiple crops, overall; assay type: in vivo; conditions: four crops; dark, 22° C.; FIG. 23
Method: as §1

[9] = tested on: Corn seeds; assay: Corn seed application (greenhouse); assay type: in vivo; conditions: seed treatment; CO 10^−8 M, LCO 10^−8 M alone or LCO 10^−9 with CO 10^−8; harvested 10 days after planting; FIG. 28
Method: Corn seeds were treated with various combinations of Pea CO (10^−8 M) and Pea LCO (10^−8, 10^−9 M). Seeds were planted in greenhouse plastic pots containing 1:1 sand:perlite mixture. Seedlings were harvested 10 days after planting, washed clean and then dried in an oven at 60 C for 48 hr.

[10] = tested on: soybean; assay: Soybean field trials, foliar application, grain yield; assay type: in vivo

CC(=O)NC1C(O)OC(CO)C(OC2OC(CO)C(OC3OC(CO)C(OC4OC(CO)C(OC5OC(CO)C(O)C(O)C5N)C(O)C4NC(C)=O)C(O)C3NC(C)=O)C(O)C2NC(C)=O)C1O (centres unmarked) [Pea CO]
average root growth from all 3 concentrations, compared to LCOs ([1]; FIGS. 7 and 8): significantly better than LCOs
seedling root fresh weight, compared to LCO ([1]; all three levels of concentrations (10^−7, 10^−8 and 10^−9 M), day 7, FIG. 6): outperformed LCO
tomato seedling root length, compared to LCO ([1]; at 10^−7M and 10^−9M, day 7): better
tomato seedling root length, compared to LCO ([1]; at 10^−8M, day 7): equal
root fresh weight, compared to control seedlings ([1]; day 7, control water): significantly better than control seedlings
root length, compared to control seedlings ([1]; day 7, control water): significantly better than control seedlings
plant dry weights (shoot, root or total plant biomass) ([2]; another experiment, vs soybean LCO, isoflavonoids, water, FIG. 13): highest plant dry weights
leaf surface area ([2]; seed treatment 3 fl oz/100 lbs of seed, 4 wks, central leaflet of 2nd trifoliate, vs control (water), FIG. 12): significant increase
leaf surface area, among the three actives (pea LCO, pea CO, China CO) ([2]; seed treatment, 4 wks, FIG. 12): highest leaf surface area
root hair deformation ([3]; 10^−8M treatment solutions): induced root hair deformation
root hair deformation compared to LCO or CO ([3]; 10^−8M): equal to LCO
corn seed germination ([4]; FIG. 18): increased germination
corn seedling root length over control ([4]; WinRhizo, FIG. 19): significantly increased
early seed germination ([5]; 22° C., counted after 24 h): induced early seed germination
more germination over control and LCO ([5]; one day after plating): 25%
seed germination [6]: better germination
seed germination [7]: better germination
overall seed germination compared to Pea LCO [8]: better than Pea LCO
corn seedling dry weight [9]: increased corn seedling dry weight
YIELD, Mean (N = 19) ([10]; soybean foliar at V4 to V5, 8×10^−8 molar, 12 μg/acre, with glyphosate): 58.2 bu/A
YIELD, Response Increase ([10]; soybean foliar, 12 μg/acre): 3 % of Control
YIELD, Response Increase ([10]; soybean foliar, 12 μg/acre, listed as CO (CO-V)): 3% of Control
YIELD, Response ([10]; soybean foliar, 12 μg/acre, over Control): 1.7 bu/A
CO mean yield less than foliar LCO ([10]; soybean foliar, CO minus LCO, less): 0.1 bu/A
yield enhancement as a foliar treatment (conclusion) ([10]; soybean foliar, CO versus LCO): substantially equal yield enhancements
Positive Yield Response ([10]; soybean foliar, percent of the 19 trials): 68.4%

From US12185720B2, “Chitooligosaccharides and methods for use in enhancing plant growth” (NOVOZYMES BIOAG A/S, priority 2011, dated 2025)
